Data published in patent publication US20030225007A1, “Sulfonamide derivatives of 3-substituted imidazol[1,2-d]-1,2,4-thiadiazoles and 3-substituted-[1,2,4] thiadiazolo[4,5-a] benzimidazole as inhibitors of fibrin cross-linking and transglutaminases” (Apotex Inc., priority 2002, published 2003).
pIC50: −log10 of the molar value. Several values for one entry are separate records, joined by “and”; a condition that tells them apart may be missing. Identical values can stand only once. Like-named read-outs stand apart in the source and are kept apart here.

Experiments:
[1] = biological target: T1, Factor XIIIa (activated FXIII) (Homo sapiens, UniProt P00488); test: Inactivation of purified Factor XIIIa (monodansylcadaverine incorporation into dimethylcasein, fluorescence); format: biochemical; conditions: for kinact/KI: read-out: Second order rate constant for inactivation; for IC50: purified activated FXIII, 50% enzyme inactivation after 5-min incubation with inhibitor at 37° C. in the absence of substrate, read-out: FXIIIa (IC50 in μM)
T1 construct: purchased Enzyme Research Laboratories, Ltd
T1 sequence (P00488 39-732 limits assumed): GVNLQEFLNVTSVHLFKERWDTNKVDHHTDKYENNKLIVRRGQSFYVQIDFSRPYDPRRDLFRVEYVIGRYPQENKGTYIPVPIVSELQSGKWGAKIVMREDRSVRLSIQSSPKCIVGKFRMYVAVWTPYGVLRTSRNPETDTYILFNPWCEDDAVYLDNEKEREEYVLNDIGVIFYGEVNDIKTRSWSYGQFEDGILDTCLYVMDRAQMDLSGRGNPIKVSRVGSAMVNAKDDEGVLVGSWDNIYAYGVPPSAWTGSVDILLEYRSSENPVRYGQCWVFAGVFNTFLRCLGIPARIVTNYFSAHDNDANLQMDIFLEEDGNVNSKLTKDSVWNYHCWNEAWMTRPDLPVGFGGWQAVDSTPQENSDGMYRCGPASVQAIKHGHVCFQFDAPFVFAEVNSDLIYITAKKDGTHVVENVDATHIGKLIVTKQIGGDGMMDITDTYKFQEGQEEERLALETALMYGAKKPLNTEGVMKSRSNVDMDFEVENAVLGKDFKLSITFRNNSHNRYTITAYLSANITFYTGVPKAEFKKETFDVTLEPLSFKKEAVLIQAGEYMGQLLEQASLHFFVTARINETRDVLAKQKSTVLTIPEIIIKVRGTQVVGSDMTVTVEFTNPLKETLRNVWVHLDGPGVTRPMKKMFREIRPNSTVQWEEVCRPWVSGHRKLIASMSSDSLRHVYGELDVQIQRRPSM
Experimental: FXIII (0.5 mg/mL, Enzyme Research Laboratories, Ltd.) in 50 mM Tris-HCl pH 7.5 containing 100 mM NaCl, 40 mM CaCl2, 1 mM EDTA and 0.1% poly(ethylene glycol) (app. MW=8000) was activated by incubation with 10 NIH units/mL of human thrombin (Calbiochem) at 37° C. for 20 min. Thrombin was quenched with 20 NIH units/mL of hirudin from Leech (Sigma).
Inhibitor solution in DMSO (14 μL) was added to 120 μL of 250 mM Tris-Cl pH 7.5 containing 40 mM CaCl2 and 1 mM EDTA and the solution was incubated at 37° C. for two minutes. Activated FXIII (5 μL, 0.5 mg/mL) was added and the mixture was incubated at 37° C. for 5 min.
An assay mixture composed of 50 mM Tris-Cl pH 8.0, 10 mM CaCl2, 1 mM EDTA, 0.1% poly(ethylene glycol) (app. MW=1000) and 20 μM monodansylcadaverine was prepared in a spectrofluorometric cell in a final volume of 2880 μL. Dimethylcasein (8 μL, 1% in 50 mM sodium phosphate pH 7.5) was added and the solution was incubated at 37° C. for a few minutes. To assay the residual enzyme activity, 120 μL of the solution containing the enzyme and the inhibitor was transferred to the assay mixture. The covalent incorporation of monodansylcadaverine into casein was monitored by an increase in fluorescence at λexc=360 nm and λem=500 nm as previously described (Curtis, C. G.; Lorand, L. Methods Enzymol. 1976, 45, 177-191). To determine uninhibited enzyme activity, DMSO was used in place of inhibitor solution in the above assay. IC50 were determined by plotting the percent of remaining enzyme activity against logarithm of inhibitor concentration. IC50 is defined here as an inhibitor concentration resulting in 50% enzyme inactivation after 5-min incubation of the enzyme with the inhibitor in the absence of the substrate. Second order rate constants for inactivation were determined using method described by Kitz and Wilson (Kitz, R.; Wilson, I. J. Biol. Chem. 1962, 237, 3245).

[2] = biological target: T2, Guinea pig liver TGase (Cavia cutleri, UniProt P08587); test: Enzyme selectivity: inactivation of tissue type transglutaminase; format: biochemical; conditions: 5-min incubation at 37° C. in the absence of substrate
T2 construct: Guinea pig liver TGase; from tissue; host or cells: guinea pig liver
T2 sequence (P08587 2-690): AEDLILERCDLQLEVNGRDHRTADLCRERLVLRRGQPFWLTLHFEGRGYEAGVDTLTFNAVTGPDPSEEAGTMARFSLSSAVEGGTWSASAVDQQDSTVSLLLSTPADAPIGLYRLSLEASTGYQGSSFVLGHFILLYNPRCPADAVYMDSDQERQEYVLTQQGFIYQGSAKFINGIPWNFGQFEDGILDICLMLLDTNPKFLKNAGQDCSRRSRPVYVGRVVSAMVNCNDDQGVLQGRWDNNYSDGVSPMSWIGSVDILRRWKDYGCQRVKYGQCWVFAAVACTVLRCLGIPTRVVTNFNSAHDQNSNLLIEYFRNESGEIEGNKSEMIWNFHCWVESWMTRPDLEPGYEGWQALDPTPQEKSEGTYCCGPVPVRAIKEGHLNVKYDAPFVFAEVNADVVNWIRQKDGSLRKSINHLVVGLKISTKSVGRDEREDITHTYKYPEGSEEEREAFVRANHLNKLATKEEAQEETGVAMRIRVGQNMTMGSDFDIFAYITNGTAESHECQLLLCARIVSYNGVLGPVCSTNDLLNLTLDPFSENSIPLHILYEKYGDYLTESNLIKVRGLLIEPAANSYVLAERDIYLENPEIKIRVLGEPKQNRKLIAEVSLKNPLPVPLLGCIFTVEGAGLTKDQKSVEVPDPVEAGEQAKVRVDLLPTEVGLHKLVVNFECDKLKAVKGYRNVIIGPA
Experimental: Enzyme selectivity . Inactivation of tissue type transglutaminase: Inhibitor solution in DMSO (5 μL) was added to 250 mM Tris-Cl pH 7.5 containing 40 mM CaCl2 and 1 mM EDTA in a final volume of 42 μL. Guinea pig liver TGase (3 μL, 2.5 mg/mL in 5 mM Tris-HCl pH 7.5, 2 mM EDTA) was added and the mixture was incubated for 5 min. at 37° C.
An assay mixture composed of 50 mM Tris-Cl, pH 8.0, 10 mM CaCl2, 1 mM EDTA, 0.1% poly(ethylene glycol) (app. MW=1000) and 20 μM monodansylcadaverine was prepared in a spectrofluorimetric cell in a final volume of 2952 μL. Dimethylcasein (8 μL, 1% in 50 mM sodium phosphate pH 7.5) was added and the mixture was incubated at 37° C. for a few minutes. To assay the residual enzyme activity, 40 μL of the solution containing the enzyme and the inhibitor was transferred to the assay mixture. The covalent incorporation of monodansylcadaverine into casein was monitored by an increase in fluorescence at λexc=360 nm and λem=500 nm, as previously described ((Curtis, C. G.; Lorand, L. Methods Enzymol. 1976, 45, 177-191). To determine uninhibited enzyme activity, DMSO was used in place of inhibitor solution in the above assay. IC50 values were determined by plotting the percent of remaining enzyme activity against logarithm of inhibitor concentration. IC50 is defined here as inhibitor concentration resulting in 50% enzyme inactivation after 5-min incubation of the enzyme with the inhibitor in the absence of the substrate. Second order rate constants for inactivation were determined using method described by Kitz and Wilson (Kitz, R.; Wilson, I. J.Biol.Chem. 1962,237, 3245).

[3] = values without asterisk, purified FXIIIa, 5-min incubation, read-out: FXIIIa IC50 determined by method in Example 16
[4] = purified Factor XIIIa, method of Kitz and Wilson
[5] = TGAse IC50, Guinea pig liver TGase

Molecule	IC50 [1] [µM]	other results
O=C(N1CCc2ccc(S(=O)(=O)NCCCCCCNc3nsc4nccn34)cc2C1)C(F)(F)F	–	pIC50 [1, 3]: 4.96; pIC50 ([2]; read-out: TGAse IC50, Guinea pig liver TGase): 4.77
O=S(=O)(NCCCCCCNc1nsc2nccn12)c1ccccc1C(F)(F)F [2-CF3-Ph / H, N-[6-(imidazo[1,2-d][1,2,4]thiadiazol-3-ylamino)hexyl]-2-trifluoromethylbenzenesulfonamide]	–	kinact/KI [1, 4]: 12000 M⁻¹ s⁻¹; pIC50 ([1]; values marked *, read-out: FXIIIa IC50, *values calculated from second order rate constant for inactivation): 6.59 and 6.74; pIC50 [2, 5]: 5.12 and 5.42
CN(CCCCCCNS(=O)(=O)c1ccccc1[N+](=O)[O-])c1nsc2nccn12 [2-NO2-Ph / CH3, N-{6-[imidazo[1,2-d][1,2,4]thiadiazol-3-yl(methyl)amino]hexyl}-2-nitrobenzenesulfonamide]	–	pIC50 [2, 5]: 5.21
O=C(O)CCCCCN(CCCCCCNc1nsc2nccn12)S(=O)(=O)c1ccc(F)cc1F [5 / OH / 2-F-4-F-Ph, 6-{[(2,4-difluorophenyl)sulfonyl][6-(imidazo[1,2-d][1,2,4]thiadiazol-3-ylamino)hexyl]amino}hexanoic acid]	6.8	–
CN(CCCCCCN(C)S(=O)(=O)c1ccccc1[N+](=O)[O-])c1nsc2nccn12 [CH3 / CH3 / 2-NO2-Ph, N-{6-[imidazo[1,2-d][1,2,4]thiadiazol-3-yl(methyl)amino]hexyl}-N-methyl-2-nitrobenzenesulfonamide]	0.6	–
CN(CCCCCCNc1nsc2nccn12)S(=O)(=O)c1cccc2ccccc12 [CH3 / H / 1-naphthyl, N-[6-(imidazo[1,2-d][1,2,4]thiadiazol-3-ylamino)hexyl]-N-methylnaphthalene-1-sulfonamide]	2.4	–
COC(=O)CN(CCCCCCNS(=O)(=O)c1ccccc1[N+](=O)[O-])c1nsc2nccn12 [H / CH2COOMe / 2-NO2-Ph, methyl N-imidazo[1,2-d][1,2,4]thiadiazol-3-yl-N-(6-{[(2-nitrophenyl)sulfonyl]amino}hexyl)glycinate]	0.88	–
O=[N+]([O-])c1ccc(NCCCCCCNc2nsc3nccn23)c([N+](=O)[O-])c1 [N^1-(2,4-dinitrophenyl)-N^6-imidazo[1,2-d][1,2,4]thiadiazol-3-ylhexane-1,6-diamine]	–	kinact/KI [1, 4]: 8900 M⁻¹ s⁻¹
N-imidazo[1,2-d][1,2,4]thiadiazol-3-yl-N-(6-{[(2-nitrophenyl)sulfonyl]amino}hexyl)glycinamide [H / CH2CONH2 / 2-NO2-Ph]	0.42	Second order rate constant for inactivation [1, 4]: 6700 M⁻¹ s⁻¹; pIC50 [1, 3]: 6.38; pIC50 ([2]; Guinea pig liver TGase, read-out: TGAse IC50): 4.49

More lines, main results first:

IC50 [1] [µM]	Molecule	other results
1.3	O=S(=O)(NCCCCCCNc1nsc2nccn12)c1ccc(-c2ccccc2)cc1 [4-Ph-Ph, N-[6-(imidazo[1,2-d][1,2,4]thiadiazol-3-ylamino)hexyl]-4-phenylbenzenesulfonamide]	–
6.5	Cc1ccc(S(=O)(=O)N[C@@H](CCCCNc2nsc3nccn23)C(=O)N2CCN(Cc3ccccc3)CC2)cc1 [4-benzyl-{N^ε-imidazo[1,2-d][1,2,4]thiadiazol-3-yl-N^α-[(4-methylphenyl)sulfonyl]lysyl}piperazine]	–
1.3	CN(CCCCCCNc1nsc2nccn12)S(=O)(=O)c1ccccc1[N+](=O)[O-] [CH3 / H / 2-NO2-Ph, N-[6-(Imidazo[1,2-d][1,2,4]thiadiazol-3-ylamino)hexyl]-N-methyl-2-nitro benzene sulfonamide]	–
6.7	Cc1ccc(S(=O)(=O)N[C@@H](CCCCNc2nsc3nccn23)C(=O)NCc2ccc(F)cc2)cc1 [N-(4-fluorobenzyl)-N^ε-imidazo[1,2-d][1,2,4]thiadiazol-3-yl-N^α-[(4-methylphenyl)sulfonyl]lysinamide]	–
2.6	O=S(=O)(NCCCCCCNc1nsc2nccn12)c1cccc2cccnc12 [Quinoline-8-, N-[6-(imidazo[1,2-d][1,2,4]thiadiazol-3-ylamino)hexyl]quinoline-8-sulfonamide]	–
9.1	Cc1ccc(S(=O)(=O)NC(CCCCNc2nsc3nccn23)C(N)=O)cc1 (centres unmarked) [—CH(CONH2)—NH— / 4-Me-Ph]	–
6.7	Cc1ccc(S(=O)(=O)N[C@@H](CCCCNc2nsc3nccn23)C(=O)O)cc1 [—CH(COOH)—NH— / 4-Me-Ph, N^ε-imidazo[1,2-d][1,2,4]thiadiazol-3-yl-N^α-[(4-methylphenyl)sulfonyl]lysine]	–
7	COC(=O)[C@H](CCCCNc1nsc2nccn12)NS(=O)(=O)c1ccc(C)cc1 [—CH(COOMe)—NH— / 4-Me-Ph, methyl N^ε-imidazo[1,2-d][1,2,4]thiadiazol-3-yl-N^α-[(4-methylphenyl)sulfonyl]lysinate]	–
